Laboratory results reported in patent publication US11351178B2, “Selective HDAC6 inhibitors” (ITALFARMACO S.P.A., priority 2017, dated 2022).
Like-named read-outs stand apart in the source and are kept apart here.

Legend:
[1] = Stability to Phase I metabolism in human S9 liver fraction; format: in vitro ADME
How it was run: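 Phase I stability in human and rat hepatic S9 at 37 °C, sampled up to 90 min. Samples were stopped with acidified acetonitrile on ice, then quantified by HPLC-UV or LC-MS/MS.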

[2] = tested on: human PBMCs; experiment: Mixed Lymphocytes Reaction (MLR) with human PBMCs (IFN-γ, TNF-α, IL-6); format: cell-based; conditions: PBMC, 144 h, two-way MLR, 6 days, negative = induction; for inhibition at […]: 0.25 μM
Method: In order to study HDAC6 inhibitors ability to inhibit the activation of allogenic T CD4+ cells, a Mixed Lymphocytes Reaction (MLR or mixed lymphocyte culture, CLM) assay was performed. This is a reaction involving blast transformation of in vitro cultured lymphocytes in the presence of allogeneic lymphocytes. There is the so-called “two-way” reaction wherein the two lymphocyte populations stimulate each other to proliferate, and the so-called “one way” reaction, wherein the proliferation of one of the two populations is inhibited by mitomycin C or irradiation, these cells provide proliferation stimulus (stimulator) to the so-called “responder” cells.
Human peripheral blood mononuclear cells (PBMCs) used in MLR were obtained by Ficoll gradient separation from Buffy Coat of healthy donors.
We used a two-way MLR. The cells from the two donors were plated at 1:1 ratio (allogenic stimulation) to the final concentration of 2×10^5 per well in U-bottom 96 well plates in RPMI 1640 medium with 10% FBS and antibiotics. As a control we individually plated the cells from each donor (singenic stimulus). The experiment for each inhibitor was set in deduplicate for allogeneic stimuli and in quintuplicate for singenic stimuli. The cells were cultured for 6 days in an incubator at 37° C.
After 6 days the effect of the test compounds was evaluated by measuring the production of pro-inflammatory cytokines recognized to be characteristics of this assay.
For this purpose, the culture supernatant was harvested and used for IFN-γ, TNF-α and IL-6 inflammatory cytokine assay.
The JAK inhibitor ruxolitinib was used as the active reference compound in the test.
Values in the table indicate the inhibition percentages. Negative values indicate an induction.

[3] = tested on: regulatory T cell (Treg, CD4+CD25+) suppression activity; experiment: T CD4 lymphocyte proliferation mediated by mouse regulatory T cells suppression assay; format: cell-based
Method: To evaluate the ability of the molecules under this patent to increase regulatory T cell (Treg, CD4^+CD25^+) suppression activity a T-cell (responder T cells, Teff) proliferation suppression assay was used. Treg cells at different concentrations were cultured with Teff cells (CD4^+CD25^−) in the presence of proliferative stimuli. T cells need of two stimuli to proliferate: the first given by the recognition of antigen associated with MHC by T cell receptor (TCR) and the second one derived from co-stimulatory molecules such as CD28. In the absence of a specific antigen, TCR activation can take place with an antibody recognizing one of the composing subunits, CD3ε. In this assay, anti-CD3ε monoclonal antibody and CD4 T cell depleted splenocytes were used as activator stimuli. Therefore, the ability to reduce Teff cells proliferation by Tregs in the presence or absence of HDAC6 inhibitors was assessed.
Treg and Teff cells were separated using the Treg isolation kit based on magnetic beads separation technique (Miltenyi Biotec) through an initial negative selection and a final positive selection process.
Single cell suspension was obtained from spleen of C57BL/6 mice using a 70 μm strainer.
Cell suspension was treated with ACK buffer to lyse red blood cells and then centrifuged for 5 minutes at 300×g. After centrifugation, the cells were resuspended in PBS (Phosphate Buffered Saline, Gibco) and counted. Subsequently, splenocytes were resuspended in a buffer consisting of PBS, 0.5% BSA and 2 mM EDTA.
To proceed with the first step of Treg separation, CD4 negative cells were indirectly magnetically labeled with a cocktail of biotin-conjugated antibodies against CD8a, CD11b, CD45R, CD49b, Ter-119 and Anti-Biotin MicroBeads CD4+ cells were thus obtained by negative selection as flow-through of a magnetic MACS column.
Cells bound to microbeads were eluted and conserved for their use as antigen presenting cells (APC) in the proliferation assay.
In the second step of Treg purification, pre-enriched CD4+ cells were labelled with an R-phycoerythrin (PE)-conjugated anti-CD25 antibody that preferentially binds to Treg cells and magnetic beads coupled with an anti PE antibody. The cell suspension was then loaded on a column. The Teff cells pass through the column without binding (negative selection), while beads-bound Treg cells adhere through the magnetic beads (positive selection). Treg cells were then eluted from the column by buffer flow using a plunger. Treg and Teff cell purification is summarized in FIG. 6. • CD4− cells from first positive selection as APC • Treg CD4+ CD25+ as suppressor cells • Teff CD4+ CD25− as responder/proliferating cells
CD4^− cells were treated with mitomycin C (50 μg/ml, Sigma) for 30 min at 37° C. to prevent their proliferation They were then resuspended at a concentration of 4.0×10^5/50 μl in complete medium (RPMI, FBS10%, penicillin/streptomycin 1×, 50 μM beta mercaptoethanol). Teffs were labeled with carboxy fluorescein succinimidyl ester (CFSE) at a concentration of 2 μM in PBS at 37° C., and after 10 minutes incubation, the reaction was blocked with a 10% FBS PBS solution. CFSE labelling allows covalent modification of Teff cell to analyse their proliferation by fluorescence dilution. The labelled Teffs were then centrifuged and resuspended at the final concentration of 5.0×10^4/50 μl in complete medium. Finally, the Tregs obtained by purification were diluted to the final concentration of 5.0×10^4/50 μl in complete medium.
Then a co-culture of Teff (5.0×10^4), T CD4^− (4.0×10^5) was prepared and Treg cells in different ratios (1:1, 1:2, 1:4, 1:8 ratio Teff to Treg cells) were added thereto. The test compounds at different concentrations or DMSO vehicle were added to the cell suspension. Finally, an anti-CD3ε monoclonal antibody (Miltenyi Biotec) was added at a concentration of 1 μg/ml. Cells were plated in flat bottom 96-well plates and each condition was set up in a technical duplicate. […]

[4] = human liver S9 fraction, after 90 min, 37° C.
[5] = read-out: MLR IFN-γ inhibition percentage
[6] = read-out: MLR IL-6 inhibition percentage
[7] = read-out: MLR TNF-α inhibition percentage

Row | Structure (SMILES) | residual percentage in human S9 fraction [1, 4] [%] | inhibition at 1 µM [2, 5] [%] | inhibition at 1 µM [2, 6] [%] | inhibition at 1 µM [2, 7] [%] | further results
1 | COc1ccc(C(=O)N[C@@H](Cc2cscn2)c2nc(Cc3ccc(C(=O)NO)cc3)no2)cc1OC [comp. 1, (S)—N-(1-(3-(4-(hydroxycarbamoyl)benzyl)-1,2,4-oxadiazol-5-yl)-2-(thiazol-4-yl)ethyl)-3,4-dimethoxybenzamide] | – | – | – | – | residual percentage in human S9 fraction ([1]; human, 90 min, pH 7.4): 81%
2 | Cn1c(Sc2c(F)cc(C(=O)NO)cc2F)nnc1-c1cccc2ccccc12 [comp. 2, 3,5-difluoro-N-hydroxy-4-((4-methyl-5-(naphthalen-1-yl)-4H-1,2,4-triazol-3-yl)thio)benzamide] | – | – | – | – | residual percentage in human S9 fraction ([1]; human, 90 min, pH 7.4): 78%
3 | O=C(NO)c1ccc(Cn2nnnc2-c2cccs2)cc1 [comp. 8, N-hydroxy-4-((5-(thiophen-2-yl)-1H-tetrazol-1-yl)methyl)benzamide] | 100 | 15.7 | -1.5 | 28.1 | inhibition at […] [2, 5]: 24.1%; inhibition at […] [2, 6]: -33.1%; inhibition at […] [2, 7]: 54.7%; inhibition at 0.5 µM [2, 5]: 35.3%; inhibition at 0.5 µM [2, 6]: -13%; inhibition at 0.5 µM [2, 7]: 35.1%
4 | Cn1c(Sc2ccc(C(=O)NO)cc2)nnc1-c1cccs1 [comp. 10, N-hydroxy-4-((4-methyl-5-(thiophen-2-yl)-4H-1,2,4-triazol-3-yl)thio)benzamide] | 95 | 25.6 | 20.6 | 49.4 | –
5 | Cn1c(Sc2c(F)cc(C(=O)NO)cc2F)nnc1-c1cccs1 [comp. 17, 3,5-difluoro-N-hydroxy-4-((4-methyl-5-(thiophen-2-yl)-4H-1,2,4-triazol-3-yl)thio)benzamide] | 83 | 41.6 | 31.2 | 39.4 | –
6 | O=C(NO)c1ccc(Cn2nnc(-c3ccccc3F)n2)cc1 [comp. 33, 4-[[5-(2-fluorophenyl)tetrazol-2-yl]methyl]benzenecarbohydroxamic acid] | – | – | – | – | RS (relative T-reg suppression, AUC drug/AUC control) ([3]; concentration 0.10 μM): 4.6
7 | CN(C)S(=O)(=O)c1cccc(-c2nnn(Cc3ccc(C(=O)NO)cc3)n2)c1 [comp. 59, 4-[[5-[3-(dimethylsulfamoyl)phenyl]tetrazol-2-yl]methyl]benzenecarbohydroxamic acid] | – | – | – | – | RS (relative T-reg suppression, AUC drug/AUC control) ([3]; concentration 0.5 μM): 4.8
8 | CCN(CC)S(=O)(=O)c1cccc(-c2nnc(Sc3ccc(C(=O)NO)cc3)n2N)c1 [comp. 61, 4-[[4-amino-5-[3-(diethylsulfamoyl)phenyl]-1,2,4-triazol-3-yl]sulfanyl]benzenecarbohydroxamic acid] | – | 16 | -21 | – | RS (relative T-reg suppression, AUC drug/AUC control) ([3]; concentration 1 μM): 1.1
9 | O=C(NO)c1cc(F)c(Cn2nnc(-c3cccs3)n2)c(F)c1 [comp. 65, 3,5-difluoro-4-[[5-(2-thienyl)tetrazol-2-yl]methyl]benzenecarbohydroxamic acid] | – | 45 | 5.4 | 67.3 | RS (relative T-reg suppression, AUC drug/AUC control) ([3]; concentration 1 μM): 4.4
10 | CCN(CC)S(=O)(=O)c1cccc(-c2nnc(Sc3ccc(C(=O)NO)cc3)n2C)c1 [comp. 66, 4-[[5-[3-(diethylsulfamoyl)phenyl]-4-methyl-1,2,4-triazol-3-yl]sulfanyl]benzenecarbohydroxamic acid] | – | 53 | 12.9 | 42.8 | RS (relative T-reg suppression, AUC drug/AUC control) ([3]; concentration 1 μM): 2.6
11 | CN(C)c1cccc(-c2nnc(Sc3ccc(C(=O)NO)cc3)n2C)c1 [comp. 77, 4-[[5-[3-(dimethylamino)phenyl]-4-methyl-1,2,4-triazol-3-yl]sulfanyl]benzenecarbohydroxamic acid] | – | 32.1 | 34.3 | 64.2 | RS (relative T-reg suppression, AUC drug/AUC control) ([3]; concentration 1 μM): 2.4
12 | O=C(NO)c1cc(F)c(Cn2nnnc2-c2ncccn2)c(F)c1 [comp. 125, 3,5-difluoro-4-[(5-pyrimidin-2-yltetrazol-1-yl)methyl]benzenecarbohydroxamic acid] | – | – | – | – | residual percentage in human S9 fraction ([1]; human, 90 min, pH 7.4): 83%
13 | Cn1c(Sc2c(F)cc(C(=O)NO)cc2F)nnc1-c1cccc(CN2CCCCCC2)c1 [comp. 167, 4-[[5-[3-(azepan-1-ylmethyl)phenyl]-4-methyl-1,2,4-triazol-3-yl]sulfanyl]-3,5-difluoro-benzenecarbohydroxamic acid] | 78 | – | – | – | –
14 | Nc1ccc(-c2nnn(Cc3c(F)cc(C(=O)NO)cc3F)n2)cc1 [comp. 171, 4-[[5-(4-aminophenyl)tetrazol-2-yl]methyl]-3,5-difluoro-benzenecarbohydroxamic acid] | 74 | – | – | – | –
15 | Cn1c(Sc2c(F)cc(C(=O)NO)cc2F)nnc1-c1cccnn1 [comp. 179, 3,5-difluoro-4-[(4-methyl-5-pyridazin-3-yl-1,2,4-triazol-3-yl)sulfanyl]benzenecarbohydroxamic acid] | 79 | – | – | – | –
16 | Cn1c(Sc2c(F)cc(C(=O)NO)cc2F)nnc1-c1ncccc1F [comp. 180, 3,5-difluoro-4-[[5-(3-fluoro-2-pyridyl)-4-methyl-1,2,4-triazol-3-yl]sulfanyl]benzenecarbohydroxamic acid] | 80 | – | – | – | –
17 | O=C(NO)c1cc(F)c(Cc2nnc(-c3ccncc3)s2)c(F)c1 [compound 195, 3,5-difluoro-4-[[5-(4-pyridyl)-1,3,4-thiadiazol-2-yl]methyl]benzenecarbohydroxamic acid] | 68 | – | – | – | –
